Structures can show the parent of a compound that is named as a salt. Each block holds one molecule with its values, some of them ahead of it.
Columns and labels:
[1] = test system: C57BL/KsJ-db/db mice; experiment: Serum glucose lowering activity in db/db mice models; assay type: in vivo; conditions: male C57BL/KsJ-db/db mice, oral gavage, 3 mg/kg/day, 6 days, one hour after dosing on 6th day
Procedure: • iii) Serum glucose lowering activity in db/db mice models
Homozygous animal C57BL/KsJ-db/db mice are obese, hyperglycemic, hyperinsulinemic and insulin resistant (J. Clin. Invest., 85, 962-967, 1990), whereas heterozygous are lean and normoglycemic. The homozygous animals very closely mimic the human type II diabetes when blood sugar levels are not sufficiently controlled. Since this type of model resembles human type II diabetes mellitus, the compounds of the invention were tested for their antidiabetic activity in this model.
Male C57 BL/KsJ-db/db mice of 8 to 14 weeks age, having body weight range of 40 to 60 grams, procured from the Jackson Laboratory, USA, were used in the experiment.
Test compounds were suspended on 0.25% carboxymethyl cellulose or dissolved in water when the compound is water soluble and administered to test group containing 6 animals at a dose of 0.001 mg to 50 mg/kg through oral gavage daily for 6 days. The control group received vehicle (dose 10 ml/kg). On the 6th day, one hour after the drug dosing, blood was collected from retro-orbital sinus and the serum was analyzed for glucose and triglycerides were measured using commercial kits (Zydus-Cadila, Pathline, Ahmedabad, India). The serum glucose and triglyceride lowering activities of the test compound was calculated according of the formula: […]

[2] = test system: hypercholesterolemic rat models; experiment: Cholesterol lowering activity in hypercholesterolemic rat models; assay type: in vivo; conditions: hypercholesterolemic male Sprague Dawley rats, oral, 3 mg/kg/day, serum
Procedure: • ii) Cholesterol lowering activity in hypercholesterolemic rat models
Male Sprague Dawley rats stock bred in Zydus animal house were maintained under 12 hour light and dark cycle at 25±1° C. Rats of 100-150 g body weight range were used for the experiment. Animals were made hypercholesterolemic by feeding 1% cholesterol and 0.5% sodium cholate mixed with standard laboratory chow (NIN, Hyderabad, India) and water ad libitum for 5 days. The animals were maintained on the same diet throughout the experiment [Petit D., Bonnefis M. T., Rey C and Infante R., Effects of ciprofibrate on liver lipids and lipoprotein synthesis in normal and hyperlipidemic rats, Atherosclerosis, 74, 215-225 (1988)].
The test compounds were administered orally at a dose 0.03 to 50 mg/kg/day for 4 days, after suspending it in 0.25% CMC or dissolving it in water when compound is water-soluble. Control group was treated with vehicle alone (0.25% of Carboxymethylcellulose; dose 10 ml/kg).
The blood samples were collected in fed state on 0th and 1 hour after drug administration on 6th day of the treatment. The blood was collected from the retro-orbital sinus through non-heparinised capillary and the serum samples were analyzed for triglyceride and total cholesterol using commercial kits (Zydus-Cadila, Pathline, Ahmedabad, India). LDL and HDL by commercial kits (point Scientific, USA). LDL and VLDL cholesterol were calculated from the data obtained for total cholesterol, HDL and triglyceride.
The reduction in VLDL cholesterol is calculated according to the formula.
VLDL cholesterol in mg/dl=Total cholesterol−HDL cholesterol−LDL cholesterol

[3] = test system: Swiss albino mice; experiment: Serum triglyceride and total cholesterol lowering activity in Swiss albino mice; assay type: in vivo; conditions: male Swiss albino mice, oral, 3 mg/kg/day, 6 days, fed state 1 hour after dosing on 6th day
Procedure: Male Swiss albino mice (SAM) were bred in Zydus animal house. All these animals were maintained under 12 hour light and dark cycle at 25±1° C. Animals were given standard laboratory chow (NIN, Hyderabad, India) and water ad libitum. SAM of 20-30 g body weight range were used.
The test compounds were administered orally to Swiss albino mice at 0.001 to 50 mg/kg/day dose for 6 days. The compound was administered after suspending it in 0.25% CMC or dissolving it in water, when compound is water-soluble. Control mice were treated with vehicle (0.25% of Carboxymethylcellulose; dose 10 ml/kg).
The blood samples were collected on 0th day and in fed state 1 hour after drug administration on 6th day of the treatment. The blood was collected in non heparinised capillary and the serum was analyzed for triglyceride and total cholesterol (Wieland, O. Methods of Enzymatic analysis. Bergermeyer, H., O., Ed., 1963. 211-214; Trinder, P. Ann. Clin. Biochem. 1969. 6: 24-27). Measurement of serum triglyceride and total cholesterol was done using commercial kits (Zydus-Cadila, Pathline, Ahmedabad, India).
Percentage reduction in triglycerides/total cholesterol were calculated according to the formula: […]

Compound: CCO[C@H](CO)Cc1ccc(OCCc2nc(-c3ccccc3)oc2C)cc1 [Compound 64, (2S)-Ethoxy-3-{4-[2-(5-methyl-2-phenyl-oxazol-4-yl)-ethoxy]-phenyl}-propan-1-ol]
- Plasma TG reduction (%) [1]: 74%
- Serum Glucose reduction (%) [1]: 56%

- melting point: 175 °C
Compound: CCO[C@H](CN)Cc1ccc(OCCc2nc(-c3ccccc3)oc2C)cc1 (as salt: bisulphate) [Compound 167, Bisulphate Salt of 2S-Ethoxy-3-{4-[2-(5-methyl-2-phenyl-oxazol-4-yl)-ethoxy]-phenyl}-propyl amine]

Compound: CCO[C@@H](Cc1ccc(OCc2nc(-c3cccs3)oc2C)cc1)C(=O)O [Compound 27, (2S)-Ethoxy-3-[4-(5-methyl-2-thiophen-2-yl-oxazol-4-ylmethoxy)-phenyl]-propanoic acid]
- Total cholesterol reduction (%) [2]: 44%

Compound: CCO[C@H](COC(=O)CBr)Cc1ccc(OCCc2nc(-c3ccccc3)oc2C)cc1 [Compound 90, (2S)-Ethoxy-3-{4-[2-(5-methyl-2-phenyl-oxazol-4-yl)-ethoxy]-phenyl}-propyl bromo-acetate]
- Total cholesterol reduction (%) [2]: 56%

Compound: CCOC[C@H](Cc1ccc(OCCc2nc(-c3ccccc3)oc2C)cc1)OCC [Compound 84, 1-Ethoxy-(2S)-ethoxy-3-[4-{2-(5-methyl-2-phenyl-oxazol-4-yl)-ethoxy}-phenyl]-propane]
- Plasma TG reduction (%) [1]: 47%
- Serum Glucose reduction (%) [1]: 47%

Compound: CCO[C@H](CN)Cc1ccc(OCCc2nc(-c3ccccc3)oc2C)cc1 [Compound 134, (2S)-Ethoxy-3-{4-[2-(5-methyl-2-phenyl-oxazol-4-yl)-ethoxy]-phenyl}-propylamine]
- % Triglyceride lowering [3]: 54%

Compound: CCO[C@H](CN)Cc1ccc(OCc2nc(-c3ccccc3)oc2C)cc1 [Compound 141, (2S)-Ethoxy-3-{4-[5-methyl-2-phenyl-oxazol-4-ylmethoxy]-phenyl}-propylamine]
- Total cholesterol reduction (%) [2]: 61%

- melting point: 135 °C
Compound: CCO[C@H](CN)Cc1ccc(OCc2nc(-c3ccccc3)oc2C)cc1.O=C(O)C(=O)O

Reference: US20090275565A1, “Substituted aralkyl derivatives” (CADILA HEALTHCARE LIMITED, priority 2002, published 2009)
